According to patent US20260250247A1, “NOVEL INDOLINE DERIVATIVE AND USE THEREOF” (CK REGEON INC., priority 2023, published 2026):

Experiments:
[1] = test system: 3T3-L1 pre-adipocytes; assay: Inhibition of adipocyte differentiation and lipid accumulation, Oil Red O; format: cell-based; settings: Mus musculus, 192 h; 3T3-L1, compound 1 μM, MDI-induced differentiation for 8 days, Oil Red O eluted, absorbance 544 nm; read-out: lipid accumulation rate
Procedure: 3T3-L1 cells were seeded in a 6-well plate at a density of […] cells per well. The cells were grown to 100% confluency in Dulbecco's modified Eagle's medium (DMEM) supplemented with 10% bovine calf serum (BCS; GIBCO). Two days after reaching 100% confluency, differentiation was induced with or without treatment with the indoline compound at a concentration of 1 μM in DMEM containing 10% fetal bovine serum (FBS; GIBCO) and MDI (520 μM methylisobutylxanthine (IBMX; Sigma-Aldrich), 1 μM dexamethasone (Sigma-Aldrich), and 5 μM insulin (GIBCO)). On day 3, the medium was replaced with DMEM containing 10% FBS and 5 μM insulin with or without the indoline compound, and then with a fresh identical medium every 2 days. After differentiation for 8 days, the culture medium was removed, and the cells were washed with PBS and then fixed with 10% formaldehyde for 1 hour. After removing the 10% formaldehyde, the cells were washed thoroughly with distilled water. After that, 60% isopropanol was added and immediately then removed. After washing with distilled water, lipid droplets were stained with an Oil Red O dye solution for 20 minutes and then washed with distilled water. The cells were counterstained with Mayer's hematoxylin. Oil Red O images were visualized using a bright-field microscope (Nikon TE-2000U). To quantify the accumulated lipids, Oil Red O was eluted by adding isopropanol, and absorbance was measured spectrophotometrically at 544 nm using a multi-plate reader.
As A3051 (KY19382) and A3334, self-developed and synthesized materials were used. As BIO, or GSK 3 Inhibitor IX, also known as 6-bromoindirubin-3′-oxime, HY-10580 was purchased commercially.
In FIG. 2, the undifferentiated group (Un Diff) refers to undifferentiated adipocytes, or preadipocytes that had not been induced to differentiate, and the differentiated group (Diff) refers to fully differentiated adipocytes.

[2] = test system: mice induced with metabolic dysfunction-associated steatohepatitis (MASH); assay: Liver morphology, H&E histology and MAFLD activity score in MASH mice; format: in vivo, C57BL/6N mice; settings: 25 mg/kg/day orally for 4 weeks
Procedure: (§1) Five-week-old wild-type male C57BL/6N mice were purchased from Orient Bio Co., Ltd. They were allowed to acclimate to the laboratory environment for one week. Mice weighing 18-20 g on average were used in the experiment. To ensure ethical and scientific validity and efficient management of animal experiments, the experiment was conducted with the approval of the Institutional Review Board (IACUC-A-202205-1472-01) of Severance Hospital, Yonsei University College of Medicine.
The mice were divided into a normal group (NCD) and a high-fat diet group (HFD). The normal group (NCD) was fed a normal chow diet (NCD, Teklad Global 18% protein rodent diet), and the high-fat diet group (HFD) was fed a high-fat diet (HFD, D12492) in which fat accounted for 60% of the total calories, for 8 weeks. […]
After preparing the 7 groups, the animals were sacrificed using carbon dioxide and the liver tissues were extracted. […] Twenty randomly selected microscopic fields were photographed and analyzed using a Nikon bright-field optical microscope (Nikon TE-2000U).
After preparing the 7 groups, the animals were sacrificed using carbon dioxide and the liver tissues were extracted. After staining the liver tissues with H&E, scores were calculated using the MAFLD activity scoring system. […]

[3] = test system: lipid droplets / PPARγ in liver tissue; assay: Liver Oil Red O staining and PPARγ immunohistochemistry in MASH mice; format: in vivo, C57BL/6N mice; settings: 25 mg/kg/day orally for 4 weeks
Procedure: as §1
The mice were divided into a normal group (NCD) and a high-fat diet group (HFD). The normal group (NCD) was fed a normal chow diet (NCD, Teklad Global 18% protein rodent diet), and the high-fat diet group (HFD) was fed a high-fat diet (HFD, D12492) in which fat accounted for 60% of the total calories, for 8 weeks.
Mice induced with metabolic dysfunction-associated steatohepatitis (MASH) (hereinafter, referred to as MASH or MASH group) were prepared by administering CCl4 intraperitoneally twice a week for 4 weeks after feeding the high-fat diet (HFD) for 8 weeks. The […] was diluted with corn oil at a ratio of 1:19 and injected at a dosage of 2 mL/kg. The normal group (NOD) was administered the same volume of physiological saline.
The animals were divided into 7 groups, each with 10 animals.
It was investigated whether the accumulation of triglycerides in the liver is suppressed effectively. For this purpose, liver tissue was extracted from each group, and it was prepared into 10-μm thick cryosections, which were then stained with Oil Red O. Details are as follows. After preparing the 7 groups, the animals were euthanized using carbon dioxide and the liver tissues were extracted. A certain area of the extracted liver tissue was cryosectioned to 10 μm thickness, fixed in 4% neutral paraformaldehyde for 20 minutes at room temperature, and washed with 70% isopropanol (Duksan Pure Chemicals). After staining with the Oil Red O (Sigma-Aldrich) reagent for 20 minutes, the sections were washed thoroughly three times with distilled water. The tissue was counterstained with Mayer's hematoxylin. Then, Oil Red O staining images were visualized using a bright-field microscope (Nikon TE-2000U).
After preparing the 7 groups, the animals were sacrificed using carbon dioxide and the liver tissues were extracted. The extracted tissues were fixed in 4% neutral paraformaldehyde and embedded in paraffin to prepare sections. The paraffin sections were cut to 4-μm thickness, deparaffinized, and then rehydrated. For antigen exposure, slides were autoclaved in a 10 mM sodium citrate buffer (pH 6.0). To block endogenous peroxidase activity prior to peroxidase IHC analysis, the tissues were incubated with 0.3% H2O2 for 10 minutes. The incubated sections were treated with phosphate-buffered saline (PBS) containing 10% NGS and 0.3% Tween-20 for 1 hour at room temperature, treated with primary antibodies of anti-PPARγ (1:50; Abcam), and incubated overnight at 4° C.
The sections treated with the primary antibodies were washed with PBS and incubated with biotinylated anti-mouse (1:400; Dako) or anti-rabbit (1:400; Dako) secondary antibodies for 1 hour at room temperature. The sections incubated with the secondary antibodies were stained with 3,3′-diaminobenzidine (DAB; Dako) for 3-7 minutes and then counterstained with Mayer's haematoxylin. All incubations were performed in a humid chamber. After the staining, images were taken and analyzed using a bright-field microscope (Nikon TE-2000U).

For `N#Cc1ccc2c(c1)/C(=C1/Nc3ccccc3C1=O)C(=O)N2` [5-cyanoindirubin], the activity at 1 µM [1] was 79%, the “steatosis / lipid droplets in liver tissue, H&E staining” value [2] was “steatosis was also confirmed clearly” and the “fatty liver, morphological observation of liver tissue” value ([2]; vs MASH group (vehicle)) was “fatty liver was not alleviated significantly”. The “lipid droplet formation and lipid infiltration in liver, Oil Red O staining” value [3] was “no significant difference was observed”.
